According to ChEMBL document CHEMBL3399984, “Identification of Bacillus anthracis PurE inhibitors with antimicrobial activity” (Bioorg Med Chem, 2015):
Converted amounts (≈) assume the structure as drawn.

How the values were obtained:
Yersinia pestis = assay: Antimicrobial activity against Yersinia pestis BEI/ATCC A1122 measured after overnight incubation; type: functional
Bacillus anthracis [1] = assay: Antimicrobial activity against Bacillus anthracis deltaANR measured after overnight incubation; type: functional
Bacillus anthracis [2] = assay: Inhibition of recombinant Bacillus anthracis PurE assessed as inhibition of 4-carboxy-amino-imidazole ribonucleotide to N5-carboxy-amino-imidazole ribonucleotide conversion preincubated for 1.5 mins at 10 uM by mass spectrometry analysis
Francisella tularensis = assay: Antimicrobial activity against Francisella tularensis BEI/ATCC UTAH 112 measured after overnight incubation; type: functional
Bacillus anthracis [3] = assay: Inhibition of recombinant Bacillus anthracis PurE assessed as change in melting temperature at 100 uM after 10 to 30 mins by high-throughput thermal shift screening
Staphylococcus aureus [4] = assay: Antimicrobial activity against methicillin-resistant Staphylococcus aureus ATCC 43300 measured after overnight incubation; type: functional
[5] = Ratio of MIC for Francisella tularensis BEI/ATCC UTAH 112 to MIC for Bacillus anthracis deltaANR; type: functional
Bacillus anthracis [6] = assay: Ratio of MBC to MIC for against Bacillus anthracis deltaANR measured after 72 hrs; type: functional
Bacillus anthracis [7] = assay: Bactericidal activity against Bacillus anthracis deltaANR measured after 72 hrs; type: functional
Escherichia coli = assay: Antimicrobial activity against TolC-deficient Escherichia coli BW25113 measured after overnight incubation; type: functional
[8] = Ratio of MIC for Yersinia pestis BEI/ATCC A1122 to MIC for Bacillus anthracis deltaANR; type: functional
Staphylococcus aureus [9] = assay: Antimicrobial activity against methicillin-sensitive Staphylococcus aureus ATCC 29213 measured after overnight incubation; type: functional
[10] = Binding affinity to Escherichia coli PurE
[11] = Binding affinity to Gallus gallus PurE

Structure (SMILES): O=C(NCc1c(-c2ccc(Cl)cc2)nc2n1CCS2)c1cccs1
- MIC (Yersinia pestis): > 12.5 µg/mL
- MIC (Bacillus anthracis [1]): > 12.5 µg/mL
- inhibition (Bacillus anthracis [2]): 11%
- MIC (Francisella tularensis): > 12.5 µg/mL
- ΔTm (Bacillus anthracis [3]): 4.7 °C

Structure (SMILES): Cc1ccc(C)c(-c2nnc(NC(=O)c3cc(Cl)sc3Cl)o2)c1
- MIC (Staphylococcus aureus [4]): 1.95 µg/mL (≈ 5.3 µM)
- MIC (Yersinia pestis): 3.1 µg/mL (≈ 8.42 µM)
- Ratio [5]: 10
- MIC (Bacillus anthracis [1]): 0.05 µg/mL (≈ 0.136 µM)
- inhibition (Bacillus anthracis [2]): 20%
- MIC (Francisella tularensis): 1.6 µg/mL (≈ 4.34 µM)
- MBC/MIC ratio (Bacillus anthracis [6]): > 4 µg/mL
- MBC (Bacillus anthracis [7]): > 12.5 µg/mL
- ΔTm (Bacillus anthracis [3]): 1.1 °C
- MIC (Escherichia coli): 0.07 µg/mL (≈ 0.19 µM)
- Ratio [8]: 10
- MIC (Staphylococcus aureus [9]): 0.78 µg/mL (≈ 2.12 µM)

Structure (SMILES): O=C(O)c1cn(C2CC2)c2cc(N3CCNCC3)c(F)cc2c1=O [CIPROFLOXACIN]
- MIC (Staphylococcus aureus [4]): 0.34 µg/mL (≈ 1.03 µM)
- MIC (Yersinia pestis): 0.04 µg/mL (≈ 0.121 µM)
- MIC (Bacillus anthracis [1]): 0.11 µg/mL (≈ 0.332 µM)
- MIC (Francisella tularensis): 0.03 µg/mL (≈ 0.0905 µM)
- MIC (Staphylococcus aureus [9]): 0.35 µg/mL (≈ 1.06 µM)

Structure (SMILES): COc1ccc(Cl)c(C(=O)Nc2nnc(-c3ccc(Br)cc3)o2)c1
- MIC (Staphylococcus aureus [4]): 3.13 µg/mL (≈ 7.66 µM)
- MIC (Yersinia pestis): 3.1 µg/mL (≈ 7.59 µM)
- Ratio [5]: 10
- MIC (Bacillus anthracis [1]): 0.78 µg/mL (≈ 1.91 µM)
- inhibition (Bacillus anthracis [2]): 15%
- MIC (Francisella tularensis): 1.2 µg/mL (≈ 2.94 µM)
- MBC/MIC ratio (Bacillus anthracis [6]): > 4 µg/mL
- MBC (Bacillus anthracis [7]): > 12.5 µg/mL
- ΔTm (Bacillus anthracis [3]): 1.4 °C
- MIC (Escherichia coli): 0.39 µg/mL (≈ 0.954 µM)
- Ratio [8]: 10
- MIC (Staphylococcus aureus [9]): 1.56 µg/mL (≈ 3.82 µM)

Structure (SMILES): O=C(Oc1ccccc1)Oc1ccc(N(C(=O)Oc2ccccc2)S(=O)(=O)c2ccc3ccccc3c2)cc1Br
- MIC (Bacillus anthracis [1]): > 12.5 µg/mL
- inhibition (Bacillus anthracis [2]): 28%
- ΔTm (Bacillus anthracis [3]): 5.2 °C

Structure (SMILES): O=C(Cc1ccc(NC(=O)c2ccc(F)cc2Cl)cc1)NCc1cccs1
- MIC (Yersinia pestis): > 12.5 µg/mL
- MIC (Bacillus anthracis [1]): > 12.5 µg/mL
- inhibition (Bacillus anthracis [2]): 20%
- MIC (Francisella tularensis): > 12.5 µg/mL
- ΔTm (Bacillus anthracis [3]): 1.8 °C

Structure (SMILES): CC(=O)NC[C@H]1CN(c2ccc(N3CCOCC3)c(F)c2)C(=O)O1 [LINEZOLID]
- MIC (Francisella tularensis): 32 µg/mL (≈ 94.9 µM)

Structure (SMILES): COc1cccc(C(=O)Nc2ccc(-c3cn4ccsc4n3)cc2)c1OC
- MIC (Yersinia pestis): > 12.5 µg/mL
- MIC (Bacillus anthracis [1]): > 12.5 µg/mL
- inhibition (Bacillus anthracis [2]): 17%
- MIC (Francisella tularensis): > 12.5 µg/mL
- ΔTm (Bacillus anthracis [3]): 3 °C

Structure (SMILES): COc1cccc(-c2nc(Cn3nnc(C(=O)NCc4ccc(Cl)cc4)c3N)c(C)o2)c1OC
- MIC (Bacillus anthracis [1]): > 12.5 µg/mL
- inhibition (Bacillus anthracis [2]): 6%
- MIC (Francisella tularensis): > 12.5 µg/mL
- ΔTm (Bacillus anthracis [3]): 1.2 °C

Structure (SMILES): Cc1sc2ccsc2[n+]1CC(=O)O.[Br-]
- MIC (Yersinia pestis): > 12.5 µg/mL
- MIC (Bacillus anthracis [1]): > 12.5 µg/mL
- inhibition (Bacillus anthracis [2]): 17%
- MIC (Francisella tularensis): > 12.5 µg/mL
- ΔTm (Bacillus anthracis [3]): 4.4 °C

Structure (SMILES): Cc1ccc(C)c(-c2nnc(NC(=O)c3cccc(Cl)c3)o2)c1
- MIC (Staphylococcus aureus [4]): > 12.5 µg/mL
- MIC (Yersinia pestis): > 12.5 µg/mL
- Ratio [5]: 10
- MIC (Bacillus anthracis [1]): 0.1 µg/mL (≈ 0.305 µM)
- inhibition (Bacillus anthracis [2]): 19%
- MIC (Francisella tularensis): 6.3 µg/mL (≈ 19.2 µM)
- MBC/MIC ratio (Bacillus anthracis [6]): > 4 µg/mL
- MBC (Bacillus anthracis [7]): > 12.5 µg/mL
- ΔTm (Bacillus anthracis [3]): 2.4 °C
- MIC (Escherichia coli): 0.02 µg/mL (≈ 0.061 µM)
- Ratio [8]: 10
- MIC (Staphylococcus aureus [9]): 0.2 µg/mL (≈ 0.61 µM)

Structure (SMILES): O=C(Nc1cccc(C(F)(F)F)c1)N1CCN(c2ccc3nncn3n2)CC1
- MIC (Yersinia pestis): > 12.5 µg/mL
- MIC (Bacillus anthracis [1]): > 12.5 µg/mL
- inhibition (Bacillus anthracis [2]): 14%
- MIC (Francisella tularensis): > 12.5 µg/mL
- ΔTm (Bacillus anthracis [3]): 3.1 °C

Structure (SMILES): Cc1c(C(=O)Nc2nnc(-c3cc(Cl)ccc3Cl)o2)c(-c2ccccc2)nc2ccccc12
- MIC (Staphylococcus aureus [4]): 6.25 µg/mL (≈ 13.1 µM)
- MIC (Yersinia pestis): > 12.5 µg/mL
- Ratio [5]: 10
- MIC (Bacillus anthracis [1]): 0.1 µg/mL (≈ 0.21 µM)
- inhibition (Bacillus anthracis [2]): 19%
- MIC (Francisella tularensis): 3.1 µg/mL (≈ 6.52 µM)
- MBC/MIC ratio (Bacillus anthracis [6]): > 4 µg/mL
- MBC (Bacillus anthracis [7]): > 12.5 µg/mL
- ΔTm (Bacillus anthracis [3]): 7.9 °C
- MIC (Escherichia coli): 0.39 µg/mL (≈ 0.82 µM)
- Ratio [8]: 10
- MIC (Staphylococcus aureus [9]): > 12.5 µg/mL

Structure (SMILES): NS(=O)(=O)c1ccc(NC(=O)CSc2nnc(-c3ccccc3)o2)cc1
- MIC (Bacillus anthracis [1]): > 12.5 µg/mL
- inhibition (Bacillus anthracis [2]): 12%
- ΔTm (Bacillus anthracis [3]): 1.5 °C

Structure (SMILES): CCCCC(CC)CNc1nc2c(c(=O)[nH]c(=O)n2C)n1CC(O)COc1ccc(C)c(C)c1 (stereo unspecified)
- inhibition (Bacillus anthracis [2]): 7%
- MIC (Francisella tularensis): > 12.5 µg/mL
- ΔTm (Bacillus anthracis [3]): 1.8 °C

Structure (SMILES): Nc1c([N+](=O)[O-])ncn1[C@@H]1O[C@H](COP(=O)(O)O)[C@@H](O)[C@H]1O
- Ki [10]: 500 nM
- Ki [11]: 0.34 nM
- inhibition (Bacillus anthracis [2]): 24%
- ΔTm (Bacillus anthracis [3]): 5.6 °C
